Legend:
[1] = biological target: T1, human σ2/TMEM97 receptor (Homo sapiens, UniProt Q5BJF2); test: Binding assay to human σ2/TMEM97 receptor; settings: transfected HEK-293 membranes, 10 nM [3H]-DTG, 25° C. 120 minutes; + may also stand for 1-50% inhibition at 1 or 10 μM; read-out: Binding σ-2 Ki
T1 construct: expressed in transfected cells; host or cells: HEK-293
Outline: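 Membranes from transfected HEK-293 cells (15 µg) were incubated with 10 nM [3H]-DTG in 50 mM Tris-HCl pH 8.0 for 120 min at 25 °C, with 10 µM haloperidol defining non-specific binding. Filtration and scintillation counting followed. Compounds tested as % inhibition at 1 or 10 µM, or at five concentrations for Ki.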

[2] = biological target: T2, human σ1 receptor (Homo sapiens, UniProt Q99720); test: Human σ1 receptor radioligand assay; settings: transfected HEK-293 membranes, 5 nM [3H](+)-pentazocine, 37° C. 120 minutes; + may also stand for 1-50% inhibition at 1 or 10 μM; read-out: Binding σ-1 Ki
T2 construct: expressed in transfected cells; host or cells: HEK-293
T2 sequence (Q99720 whole entry): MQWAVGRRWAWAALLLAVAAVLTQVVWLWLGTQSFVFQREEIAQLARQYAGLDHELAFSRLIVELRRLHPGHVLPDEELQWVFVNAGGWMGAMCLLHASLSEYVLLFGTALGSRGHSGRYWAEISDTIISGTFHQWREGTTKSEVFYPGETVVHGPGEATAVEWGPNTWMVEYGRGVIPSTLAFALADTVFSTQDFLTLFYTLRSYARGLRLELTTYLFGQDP
Outline: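 Membranes (7 μg) were incubated with 5 nM [3H](+)-pentazocine in 50 mM Tris-HCl pH 8 for 120 min at 37° C. Non-specific binding was defined with 10 μM haloperidol. Values are % inhibition at 1 or 10 μM or Ki from five concentrations, read by filtration and scintillation counting.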

T1 sequence (Q5BJF2 whole entry): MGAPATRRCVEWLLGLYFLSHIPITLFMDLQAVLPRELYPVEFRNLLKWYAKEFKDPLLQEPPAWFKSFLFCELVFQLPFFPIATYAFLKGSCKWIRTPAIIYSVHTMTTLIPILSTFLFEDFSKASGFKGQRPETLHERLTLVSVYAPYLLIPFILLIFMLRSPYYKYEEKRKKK

Row | SMILES | Ki [1] [nM] | Ki [2] [nM]
1 | CN(CCC(C)(C)C)[C@H]1CC[C@H](NS(=O)(=O)c2ccc(N3CCOCC3)nc2)CC1 [Example 89, N-((1r,4r)-4-((3,3-Dimethylbutyl)(methyl)amino)cyclo-hexyl)-6-morpholinopyridine-3-sulfonamide] | < 100 | 500 to 1000
2 | O=C1OCCN1c1ccc(S(=O)(=O)N2CCC3(CCN(CC4CCOCC4)CC3)CC2)cn1 [Example 128, 3-(5-((9-((Tetrahydro-2H-pyran-4-yl)methyl)-3,9-diazaspiro[5.5]undecan-3-yl)sulfonyl)pyridin-2-yl)oxazolidin-2-one] | < 100 | 500 to 1000
3 | O=C1OCCN1c1ccc(S(=O)(=O)N2CCCC3(CCN(Cc4cc(F)ccc4F)CC3)C2)cn1 [Example 160, 3-(5-((9-(2,5-Difluorobenzyl)-2,9-diazaspiro[5.5]undecan-2-yl)sulfonyl)pyridin-2-yl)oxazolidin-2-one] | < 100 | < 100
4 | O=C1OCCN1c1ccc(S(=O)(=O)N2CCC3(CCCN(Cc4ccccc4)C3)CC2)cn1 [Example 147, 3-(5-((2-Benzyl-2,9-diazaspiro[5.5]undecan-9-yl)sulfonyl)pyridin-2-yl)oxazolidin-2-one] | 100 to 500 | 500 to 1000
5 | O=C1CCCN1c1ccc(S(=O)(=O)N2CCCC3(CCN(CC4CCOCC4)CC3)C2)cn1 [Example 126, 1-(5-((9-((Tetrahydro-2H-pyran-4-yl)methyl)-2,9-diazaspiro[5.5]undecan-2-yl)sulfonyl)pyridin-2-yl)pyrrolidin-2-one] | < 100 | < 100
6 | O=C1OCCN1c1ccc(S(=O)(=O)N2CCC3(CCCN(CC4CCOCC4)C3)CC2)cn1 [Example 149, 3-(5-((2-((Tetrahydro-2H-pyran-4-yl)methyl)-2,9-diazaspiro[5.5]undecan-9-yl)sulfonyl)pyridin-2-yl)oxazolidin-2-one] | 100 to 500 | < 100

Next, values leading:

Row | Ki [1] [nM] | Ki [2] [nM] | SMILES
7 | < 100 | 500 to 1000 | COc1ccc(CNC[C@@H]2CCCN(S(=O)(=O)c3ccc(N4CCOCC4)nc3)C2)cn1 [Example 34, (S)-1-(6-Methoxypyridin-3-yl)-N-((1-((6-morpholinopyridin-3-yl)sulfonyl)piperidin-3-yl)methyl) methanamine]
8 | 100 to 500 | > 1000 | CN(CCc1ccccc1)C1CCN(S(=O)(=O)c2ccc(N3CCOCC3)nc2)CC1 [Example 15, N-Methyl-1-((6-morpholinopyridin-3-yl)sulfonyl)-N-phenethylpiperidin-4-amine]
9 | < 100 | > 1000 | CN(Cc1ccccc1)[C@H]1CC[C@H](NS(=O)(=O)c2ccc(N3CCC4(CCCO4)CC3)nc2)CC1 [Example 176, N-((1r,4r)-4-(Benzyl(meth-yl)amino)cyclohexyl)-6-(1-oxa-8-azaspiro[4.5]decan-8-yl)pyridine-3-sulfonamide]
10 | < 100 | 100 to 500 | CN(Cc1ccccc1)C1CCN(S(=O)(=O)c2ccc(N3CCCC3=O)nc2)CC1 [Example 148, 1-(5-((4-(Benzyl(methyl)ami-no)piperidin-1-yl)sulfonyl)pyridin-2-yl)pyrrolidin-2-one]
11 | > 1000 | < 100 | CN([C@H]1CCN(Cc2ccccc2)C1)S(=O)(=O)c1ccc(N2CCOCC2)nc1 [Example 4, (S)-N-(1-Benzylpyrrolidin-3-yl)-N-methyl-6-morpholinopyridine-3-sulfonamide]
12 | > 1000 | 500 to 1000 | CC(C)N([C@H]1CCN(Cc2ccc(C#N)cc2)C1)S(=O)(=O)c1ccc(N2CCOCC2)nc1 [Example 50, (S)-N-(1-(4-Cyanobenzyl)pyrrolidin-3-yl)-N-isopropyl-6-morpholinopyridine-3-sulfonamide]
13 | > 1000 | < 100 | O=S(=O)(NC1CCN(Cc2ccccc2)CC1)c1ccc(N2CCOCC2)nc1 [Example 2, N-(1-Benzylpiperidin-4-yl)-6-morpholinopyridine-3-sulfonamide]

Source: patent US20240254115A1 (ACONDICIONAMIENTO TARRASENSE, priority 2021, published 2024)
